Legend:
[1] = target: Recombinant human Bcl-2 protein (Homo sapiens (Human), UniProt P10415); test: Bcl-2 TR-FRET Assay; assay type: binding; conditions: Bcl-2 wild type, TR-FRET; read-out: Biochemical assay (IC50, nM) Bcl-2 WT
Outline: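 0.05 nM recombinant Bcl-2 preincubated 0.5 h at room temperature with 10-point compound dilutions (top final 1, 0.1, 0.02 or 0.01 uM) in pH 7.5 phosphate buffer. FITC-Bak peptide (0.5 nM) and anti-6His Tb cryptate then added for 1 h. TR-FRET read; IC50 from four-parameter logistic fit.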

[2] = target: recombinant human Bcl-2-G101V protein (Homo sapiens (Human), UniProt P10415, G101V); test: Bcl-2-G101V TR-FRET Assay; assay type: binding; conditions: Bcl-2 G101V mutant, TR-FRET; read-out: Biochemical assay (IC50, nM) Bcl-2 G101V
Outline: (§1)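 Measures how compounds block Bcl-2-G101V engaging its ligand, by TR-FRET with 337 nm excitation and a 490/520 nm emission ratio; dose-response data give IC50 via a four-parameter logistic model.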

[3] = test system: recombinant human Bcl-2-G101V protein; test: Bcl-2-G101V TR-FRET Assay; assay type: binding; conditions: ratio of biochemical IC50 Bcl-2 G101V / Bcl-2 WT
Outline: as §1

[4] = test system: RS4;11 (BCL-2 dependent acute lymphoblastic leukemia cell line); test: RS4;11 Cell Proliferation Assay; assay type: cell-based; conditions: Homo sapiens, RS4-11, RS4;11 cells, read-out: Cellular proliferation assay (IC50, nM) RS4
Outline: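 RS4;11 cells, 50,000 per well in RPMI-1640 with 10% FBS, treated 48 h at 37 °C with a 10-point dilution series topping at 1 μM. Viability read by CellTiter-Glo ATP luminescence; mean IC50 reported.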

[5] = test system: BCL-2 G101V knock-in cell line H96 (derive from RS4;11); test: Bcl 2-G101V Knock-In RS4;11 Cell Proliferation Assay; assay type: cell-based; conditions: Homo sapiens, RS4;11 Bcl-2 G101V knock-in clone H96, 48 hrs, CellTiter-GLO, read-out: Cellular proliferation assay (IC50, nM) RS4
Outline: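 H96, a CRISPR-generated RS4;11 clone carrying BCL2-G101V knock-in (WES/RNA-seq validated), seeded 50,000 per well and exposed 48 h at 37 °C to 10-point dilutions topping at 1 or 10 μM. Viability by CellTiter-Glo luminescence; mean IC50.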

Question: Which results are given for `COc1c(Cl)cccc1CN1CCN(C2CC3(CCN(c4ccc(C(=O)NS(=O)(=O)c5ccc(NC[C@H]6CC[C@](C)(O)CC6)c([N+](=O)[O-])c5)c(Oc5cnc6[nH]ccc6c5)c4)CC3)C2)C(c2ccccc2C(C)C)C1` (some centres unmarked) [Example 119, 2-((1H-pyrrolo[2,3-b]pyridin-5-yl)oxy)-4-(2-(4-(3-chloro-2-methoxybenzyl)-2-(2-isopropylphenyl)piperazin-1-yl)-7-azaspiro[3.5]nonan-7-yl)-N-((4-((((1r,4r)-4-hydroxy-4-methylcyclohexyl)methyl)amino)-3-nitrophenyl)sulfonyl)benzamide]?
Answer: IC50 [1]: 0.37 nM; IC50 [2]: 3.1 nM; Ratio of Bcl-2 G101V/WT [3]: 8.5; IC50 [4]: 1.44 nM; IC50 [5]: 14.4 nM

Question: `COc1cccc(CN2CCN(C3CC4(CCN(c5ccc(C(=O)NS(=O)(=O)c6ccc(NC[C@H]7CC[C@](C)(O)CC7)c([N+](=O)[O-])c6)c(Oc6cnc7[nH]ccc7c6)c5)CC4)C3)C(c3ccccc3C(C)C)C2)c1Cl` (some centres unmarked) [Example 120, 2-((1H-pyrrolo[2,3-b]pyridin-5-yl)oxy)-4-(2-(4-(2-chloro-3-methoxybenzyl)-2-(2-isopropylphenyl)piperazin-1-yl)-7-azaspiro[3.5]nonan-7-yl)-N-((4-((((1r,4r)-4-hydroxy-4-methylcyclohexyl)methyl)amino)-3-nitrophenyl)sulfonyl)benzamide] was tested. Which IC50 [1] did it give?
Answer: Its IC50 is 0.42 nM.

Question: What about the IC50 [2] of the same compound?
Answer: Its IC50 is 3.4 nM.

Question: And the “Ratio of Bcl-2 G101V/WT” value [3]?
Answer: The value was 8.

Question: And the IC50 [4]?
Answer: Its IC50 is 1.25 nM.

Question: And the IC50 [5]?
Answer: Its IC50 is 12.7 nM.

Question: `COc1cc(CN2CCN(C3CC4(CCN(c5ccc(C(=O)NS(=O)(=O)c6ccc(NC[C@H]7CC[C@](C)(O)CC7)c([N+](=O)[O-])c6)c(Oc6cnc7[nH]ccc7c6)c5)CC4)C3)[C@H](c3ccccc3C(C)C)C2)ccc1F` [Example 121a, 2-((1H-pyrrolo[2,3-b]pyridin-5-yl)oxy)-4-(2-((R)-4-(4-fluoro-3-methoxybenzyl)-2-(2-isopropylphenyl)piperazin-1-yl)-7-azaspiro[3.5]nonan-7-yl)-N-((4-((((1r,4r)-4-hydroxy-4-methylcyclohexyl)methyl)amino)-3-nitrophenyl)sulfonyl)benzamide] was tested. Which IC50 [1] did it give?
Answer: The IC50 was 0.12 nM.

Question: What about the IC50 [2] of the same compound?
Answer: Its IC50 is 0.4 nM.

Question: What about the “Ratio of Bcl-2 G101V/WT” value [3] of the same compound?
Answer: Its value is 3.4.

Question: What about the IC50 [4] of the same compound?
Answer: The IC50 was 0.153 nM.

Question: And the IC50 [5]?
Answer: The IC50 was 0.603 nM.

Question: For `COc1cc(CN2CCN(C3CC4(CCN(c5ccc(C(=O)NS(=O)(=O)c6ccc(NC[C@H]7CC[C@](C)(O)CC7)c([N+](=O)[O-])c6)c(Oc6cnc7[nH]ccc7c6)c5)CC4)C3)C(c3ccccc3C(C)C)C2)ccc1Cl` (some centres unmarked) [Example 126, 2-((1H-pyrrolo[2,3-b]pyridin-5-yl)oxy)-4-(2-(4-(4-chloro-3-methoxybenzyl)-2-(2-isopropylphenyl)piperazin-1-yl)-7-azaspiro[3.5]nonan-7-yl)-N-((4-((((1r,4r)-4-hydroxy-4-methylcyclohexyl)methyl)amino)-3-nitrophenyl)sulfonyl)benzamide], which IC50 [1] is on record?
Answer: The IC50 was 0.42 nM.

Question: What about the IC50 [2] of the same compound?
Answer: The IC50 was 1.9 nM.

Question: What about the “Ratio of Bcl-2 G101V/WT” value [3] of the same compound?
Answer: The value was 4.5.

Question: What about the IC50 [4] of the same compound?
Answer: The IC50 was 0.18 nM.

Question: And the IC50 [5]?
Answer: Its IC50 is 3.6 nM.

Question: For `COc1ccc(CN2CCN(C3CC4(CCN(c5ccc(C(=O)NS(=O)(=O)c6ccc(NC[C@H]7CC[C@](C)(O)CC7)c([N+](=O)[O-])c6)c(Oc6cnc7[nH]ccc7c6)c5)CC4)C3)C(c3ccccc3C(C)C)C2)cc1Cl` (some centres unmarked) [Example 128, 2-((1H-pyrrolo[2,3-b]pyridin-5-yl)oxy)-4-(2-(4-(3-chloro-4-methoxybenzyl)-2-(2-isopropylphenyl)piperazin-1-yl)-7-azaspiro[3.5]nonan-7-yl)-N-((4-((((1r,4r)-4-hydroxy-4-methylcyclohexyl)methyl)amino)-3-nitrophenyl)sulfonyl)benzamide], which IC50 [1] is on record?
Answer: Its IC50 is 0.63 nM.

Question: And the IC50 [2]?
Answer: Its IC50 is 2.6 nM.

Question: And the “Ratio of Bcl-2 G101V/WT” value [3]?
Answer: The value was 4.

Question: And the IC50 [4]?
Answer: Its IC50 is 0.36 nM.

Question: What about the IC50 [5] of the same compound?
Answer: The IC50 was 3.94 nM.

Question: Which IC50 [1] does the source give for `CC(C)c1ccccc1C1CN(Cc2cccc3c2OCCC3)CCN1C1CC2(CCN(c3ccc(C(=O)NS(=O)(=O)c4ccc(NC[C@H]5CC[C@](C)(O)CC5)c([N+](=O)[O-])c4)c(Oc4cnc5[nH]ccc5c4)c3)CC2)C1` (some centres unmarked) [Example 130, 2-((1H-pyrrolo[2,3-b]pyridin-5-yl)oxy)-4-(2-(4-(chroman-8-ylmethyl)-2-(2-isopropylphenyl)piperazin-1-yl)-7-azaspiro[3.5]nonan-7-yl)-N-((4-((((1r,4r)-4-hydroxy-4-methylcyclohexyl)methyl)amino)-3-nitrophenyl)sulfonyl)benzamide] here?
Answer: The IC50 was 0.57 nM.

Question: What about the IC50 [2] of the same compound?
Answer: The IC50 was 1.9 nM.

Question: What about the “Ratio of Bcl-2 G101V/WT” value [3] of the same compound?
Answer: The value was 3.4.

Question: And the IC50 [4]?
Answer: The IC50 was 0.34 nM.

Question: And the IC50 [5]?
Answer: Its IC50 is 2.8 nM.

Question: Which results are given for `CC(C)c1ccccc1C1CN(Cc2cccc3c2CCCO3)CCN1C1CC2(CCN(c3ccc(C(=O)NS(=O)(=O)c4ccc(NC[C@H]5CC[C@](C)(O)CC5)c([N+](=O)[O-])c4)c(Oc4cnc5[nH]ccc5c4)c3)CC2)C1` (some centres unmarked) [Example 133, 2-((1H-pyrrolo[2,3-b]pyridin-5-yl)oxy)-4-(2-(4-(chroman-5-ylmethyl)-2-(2-isopropylphenyl)piperazin-1-yl)-7-azaspiro[3.5]nonan-7-yl)-N-((4-((((1r,4r)-4-hydroxy-4-methylcyclohexyl)methyl)amino)-3-nitrophenyl)sulfonyl)benzamide]?
Answer: IC50 [1]: 0.57 nM; IC50 [2]: 1.9 nM; Ratio of Bcl-2 G101V/WT [3]: 3.4; IC50 [4]: 0.34 nM; IC50 [5]: 2.8 nM

Question: How did the IC50 [1] turn out when `COc1ccc(CN2CCN(C3CC4(CCN(c5ccc(C(=O)NS(=O)(=O)c6ccc(NC[C@H]7CC[C@](C)(O)CC7)c([N+](=O)[O-])c6)c(Oc6cnc7[nH]ccc7c6)c5)CC4)C3)C(c3ccccc3C(C)C)C2)cc1C1CC1` (some centres unmarked) [Example 136, 2-((1H-pyrrolo[2,3-b]pyridin-5-yl)oxy)-4-(2-(4-(3-cyclopropyl-4-methoxybenzyl)-2-(2-isopropylphenyl)piperazin-1-yl)-7-azaspiro[3.5]nonan-7-yl)-N-((4-((((1r,4r)-4-hydroxy-4-methylcyclohexyl)methyl)amino)-3-nitrophenyl)sulfonyl)benzamide] was run?
Answer: The IC50 was 0.75 nM.

Question: And the IC50 [2]?
Answer: The IC50 was 2.9 nM.

Question: And the “Ratio of Bcl-2 G101V/WT” value [3]?
Answer: The value was 3.8.

Question: What about the IC50 [4] of the same compound?
Answer: The IC50 was 0.51 nM.

Question: What about the IC50 [5] of the same compound?
Answer: Its IC50 is 4.6 nM.

Question: How did the IC50 [1] turn out when `CC(C)c1ccccc1C1CN(Cc2cccc3ccoc23)CCN1C1CC2(CCN(c3ccc(C(=O)NS(=O)(=O)c4ccc(NC[C@H]5CC[C@](C)(O)CC5)c([N+](=O)[O-])c4)c(Oc4cnc5[nH]ccc5c4)c3)CC2)C1` (some centres unmarked) [Example 137, 2-((1H-pyrrolo[2,3-b]pyridin-5-yl)oxy)-4-(2-(4-(benzofuran-7-ylmethyl)-2-(2-isopropylphenyl)piperazin-1-yl)-7-azaspiro[3.5]nonan-7-yl)-N-((4-((((1r,4r)-4-hydroxy-4-methylcyclohexyl)methyl)amino)-3-nitrophenyl)sulfonyl)benzamide] was run?
Answer: The IC50 was 0.62 nM.

Question: And the IC50 [2]?
Answer: The IC50 was 3.2 nM.

Question: What about the “Ratio of Bcl-2 G101V/WT” value [3] of the same compound?
Answer: Its value is 5.1.

Question: And the IC50 [4]?
Answer: Its IC50 is 0.89 nM.

Question: And the IC50 [5]?
Answer: Its IC50 is 9.6 nM.

Question: Which IC50 [1] does the source give for `COc1ccc(OC2CCN(C3CC4(CCN(c5ccc(C(=O)NS(=O)(=O)c6ccc(NC[C@H]7CC[C@](C)(O)CC7)c([N+](=O)[O-])c6)c(Oc6cnc7[nH]ccc7c6)c5)CC4)C3)C(c3ccccc3C(C)C)C2)cc1` (some centres unmarked) [Example 138, 2-((1H-pyrrolo[2,3-b]pyridin-5-yl)oxy)-N-((4-((((1r,4r)-4-hydroxy-4-methylcyclohexyl)methyl)amino)-3-nitrophenyl)sulfonyl)-4-(2-(2-(2-isopropylphenyl)-4-(4-methoxyphenoxy)piperidin-1-yl)-7-azaspiro[3.5]nonan-7-yl) benzamide] here?
Answer: Its IC50 is 0.36 nM.

Question: And the IC50 [2]?
Answer: The IC50 was 1.5 nM.

Question: What about the “Ratio of Bcl-2 G101V/WT” value [3] of the same compound?
Answer: Its value is 4.1.

Question: What about the IC50 [4] of the same compound?
Answer: The IC50 was 0.44 nM.

Question: And the IC50 [5]?
Answer: The IC50 was 3 nM.
